Test results reported in patent US20050215620A1, “Method of treating amyloid beta precursor disorders” (Andrx Labs, LLC, priority 1999, published 2005).

Columns and labels:
[1] = system: APP processing; test: APP processing (APPs formation, APPm levels) in H4 cells; assay type: cell-based, human; settings: 0.5 μM LA
Experimental: (§1) The three cell lines utilized were: Chinese Hamster Ovary (CHO) cells expressing the 751 amino acid form of APP; Mabin-Darby Canine Kidney (MDCK) cells which overexpress the 695 amino acid form of APP; Human neuroglioma (H4) cells overexpressing the 695 form of human APP. All cells were prepared by the stable introduction of a cDNA coding for human APP. All cell lines were maintained in DMEM containing 10% FBS and antibiotics.
For measurement of APP processing and Aβ peptide formation, medium was removed and the cells were washed once with PBS and then incubated for 2 hours in DMEM containing 1 mCi/ml [^35S] Methionine. […]
The incubations with antibody 6E10 or antibody 369 were performed at 4° C. for 75 minutes followed by a 45 minute incubation at 4° C. with either agarose-linked anti-mouse IgG for antibody 6E10 or protein A sepharose for antibody 369. […] The protein bands were visualized on a STORM 860 Phosphor Imager® (Molecular Dynamics) and quantitated using ImageQuant® (Molecular Dynamics).
To determine whether cholesterol depletion affects other aspects of APP processing, H4 cells were incubated for four days in the presence or absence of 0.5 μM LA, and subjected to metabolic labeling. The levels of [^35S]-labeled APPi and APPm were determined by irnmunoprecipitation from cell lysates with an antibody against the COOH-terminal of APP, followed by quantitative autoradiography. […]

[2] = system: Aβ peptides; test: Extracellular and intracellular [35S]-labeled Aβ peptides in APP-expressing H4, MDCK and CHO cells (pulse-chase, immunoprecipitation, autoradiography); assay type: cell-based, human; canine; Chinese hamster (cells expressing human APP)
Experimental: as §1
In order to characterize the effects of cholesterol depletion, cell cultures of each cell line were cultured on six-well plates for 4 days in DMEM containing 10% FCLPDS, which lipid depleted medium reduced the external source of cholesterol, in the presence of lovastatin acid (LA) or absence of LA.
For measurement of APP processing and Aβ peptide formation, medium was removed and the cells were washed once with PBS and then incubated for 2 hours in DMEM containing 1 mCi/ml [^35S] Methionine. After this “pulse” period, the cells were either (1) lysed to measure the total labeled APPi and APPm at time zero, or (2) the cells were incubated for 2 hours in fresh, unlabeled complete medium (“chase”) and then lysed. Then the cell supernatants and lysates were treated with the appropriate antibody to calculate the amounts of APPi, APPm, APPs, and Aβ peptides.
To measure Aβ peptides, or to measure APPs, which is the secreted carboxyl-terminal truncated form, cell supernatants were incubated with antibody 6E10, which recognizes the first 15 amino acids of the Aβ peptide that correspond to the COOH-terminal amino acids of APPs . See Buxbaum, J. D., et al. (1994) Proc Natl Acad Sci USA. 91:4489-93, which is incorporated herein by reference.
The incubations with antibody 6E10 or antibody 369 were performed at 4° C. for 75 minutes followed by a 45 minute incubation at 4° C. with either agarose-linked anti-mouse IgG for antibody 6E10 or protein A sepharose for antibody 369. The beads were then washed three times for 10 minutes and then run on either a 10-20% Tris-Tricine Gel for APPs and Aβ peptides or an 8% polyacrylamide gel for cell-associated APR The gels were dried and exposed to a Phosphor Imager® screen (STORM 860, Molecular Dynamics) and exposed for a minimum of two days. The protein bands were visualized on a STORM 860 Phosphor Imager® (Molecular Dynamics) and quantitated using ImageQuant® (Molecular Dynamics). […]
To determine whether a decrease in cholesterol is associated with a change in the amount of extracellular Aβ peptides, the H4, MDCK, and CHO cells, expressing human APPm were incubated for 4 days in the presence or absence of 0.5 μM LA. […] Relative levels of extracellular Aβ peptides were determined under each condition by quantitative Phosphorlmager autoradiography. […]

[3] = system: APP processing; test: Extracellular APPs, extracellular Aβ peptides and total APPm in CHO cells; assay type: cell-based, Chinese hamster (cells expressing human APP)
Experimental: The three cell lines utilized were: Chinese Hamster Ovary (CHO) cells expressing the 751 amino acid form of APP; Mabin-Darby Canine Kidney (MDCK) cells which overexpress the 695 amino acid form of APP; Human neuroglioma (H4) cells overexpressing the 695 form of human APP. All cells were prepared by the stable introduction of a cDNA coding for human APP. All cell lines were maintained in DMEM containing 10% FBS and antibiotics. […] After this “pulse” period, the cells were either (1) lysed to measure the total labeled APPi and APPm at time zero, or (2) the cells were incubated for 2 hours in fresh, unlabeled complete medium (“chase”) and then lysed. Then the cell supernatants and lysates were treated with the appropriate antibody to calculate the amounts of […], and Aβ peptides. To measure cell-associated, full-length APPi and APPm, or to measure carboxyl-terminal fragments of APP, cell lysates were incubated with antibody 369 which recognizes the carboxyl-terminus of APP. See Buxbaum, J. D., et al. (1990) Proc Natl Acad Sci USA 87:6003-6, which is incorporated herein by reference. […] See Buxbaum, J. D., et al. (1994) Proc Natl Acad Sci USA. 91:4489-93, which is incorporated herein by reference. The incubations with antibody 6E10 or antibody 369 were performed at 4° C. for 75 minutes followed by a 45 minute incubation at 4° C. with either agarose-linked anti-mouse IgG for antibody 6E10 or protein A sepharose for antibody 369. […] The protein bands were visualized on a STORM 860 Phosphor Imager® (Molecular Dynamics) and quantitated using ImageQuant® (Molecular Dynamics). […] Specifically, it was determined that treatment of CHO cells with 0.5 μM LA reduced the amount of extracellular APPs by about 30% of the amount calculated for the control and reduced the amount of extracellular Aβ peptides by about 70% of the amount calculated for the control when no LA was present. The amount of extracellular Aβ peptides and the amount of extracellular APPs were normalized to the amount of total APP found in the cell at the end of cell labeling as described above. […]

[4] = CHO cells, 0.5 μM LA, normalized to total APP

CC[C@H](C)C(=O)O[C@H]1C[C@@H](C)C=C2C=C[C@H](C)[C@H](CC[C@@H](O)C[C@@H](O)CC(=O)O)[C@H]21 [LA, lovastatin acid]
effects on maturation, levels of [35S]-labeled APPm (FIG. 6) [1]: not sufficient to account for the decrease in Aβ peptide levels | [35S]-labeled APPs formation as compared to control cells (FIG. 5) ([1]; H4 cells, four days): modest decrease | decrease in amounts of extracellular Aβ peptides as compared to the untreated cells ([2]; 0.5 μM LA, 4 days, lipid depleted medium, H4, MDCK and CHO cells): 40-60% | LA concentration sufficient to significantly (p<0.001) decrease the amount of extracellular Aβ peptides ([2]; each cell type, various concentrations of LA): ≥ 0.05 µM | levels of intracellular Aβ peptides in cell lysates ([2]; presence of 0.5 μM LA): No detectable levels | reduction of extracellular Aβ peptide levels (weaker effect) ([2]; printed as 0.5 μM LA): < 20% | level of total APPm ([3]; CHO cells treated with 0.5 μM LA (control 3.2×10^6)): 3.4×10^6 arbitrary units | reduction of the amount of extracellular APPs relative to control [3, 4]: about 30% | reduction of the amount of extracellular Aβ peptides relative to control [3, 4]: about 70%
